In patent US12409159B2, “3-hydroxybutyrate alone or in combination for use in the treatment of critical care treatment” (KATHOLIEKE UNIVERSITEIT LEUVEN, priority 2016, dated 2025):
Counter-ions that a name gives are not always drawn.

Key:
[1] = tested on: mouse model of prolonged critical illness evoked by sepsis (cecal ligation and puncture); assay: Ex vivo force measurement of isolated extensor digitorum longus (EDL) muscle, mouse model of prolonged critical illness evoked by sepsis; format: in vivo, mice
Excerpt: Mice experiment 2: We examined muscle force ex vivo in lean and diet-induced obese CLP mice. […] Mice were randomly allocated to “healthy control” or “CLP.” As in experiment 1 we had observed that muscle wasting occurred irrespective of feeding, we now only compared parenterally fed with pair-fed lean (n=17) and obese (n=15) healthy mice. Until day 5, 15/18 lean and 15/18 obese CLP mice survived. After 5 days, animals were deeply anesthetized and the m. extensor digitorum longus (EDL) was carefully dissected from both hind limbs for ex vivo muscle force measurements.
(§1) We studied the effect of subcutaneous administration of D,L-3-hydroxybutyrate sodium salt on muscle wasting and weakness in a validated mouse model of prolonged critical illness evoked by sepsis (cecal ligation and puncture followed by resuscitation and intensive medical care). The intervention was studied in the parenterally fed and in the fasted state.
Muscle function was quantified in isolated extensor digitorum longus (EDL) muscle. Critical illness in parenterally fed mice (PN) reduced the absolute maximal force generated by EDL to 57% of healthy controls (p<0.0001) (FIG. 9). […]
(§2) Muscle mass and function was quantified in isolated extensor digitorum longus (EDL) muscle. […]

[2] = tested on: mouse model of prolonged critical illness evoked by sepsis (cecal ligation and puncture); assay: 5-day mortality in prolonged critically ill mice; format: in vivo
Excerpt: FIG. 10. Effect of 3-hydroxybutyrate injections on 5-day mortality in prolonged critically ill mice. Black line, healthy control mice (15/15 survivors); gray line, parenterally fed critically ill mice (17/20 survivors); dash dot line; parenterally fed critically ill mice receiving 3-hydroxybutyrate (17/21 survivors); dotted line, fasted critically ill mice receiving 3-hydroxybutyrate (14/22 survivors). [PN=parenteral nutrition; 3HB=3-hydroxybutyrate].
as §1
Muscle function was quantified in isolated extensor digitorum longus (EDL) muscle. Critical illness in parenterally fed mice (PN) reduced the absolute maximal force generated by EDL to 57% of healthy controls (p<0.0001) (FIG. 9). However, when parenterally fed critically ill mice received subcutaneous twice daily a bolus of 75 mg of D,L-3-hydroxybutyrate sodium salt (PN+3HB), maximal muscle force improved dramatically to 83% of healthy controls (p<0.0001) (FIG. 9).

[3] = tested on: mouse model of prolonged critical illness evoked by sepsis (cecal ligation and puncture); assay: Muscle wasting: weight of isolated skeletal muscles (EDL, tibialis anterior) in prolonged critically ill mice; format: in vivo; settings: Example 7, first experiment, fasted critically ill mice
Method: To control for potential illness- or resuscitation-related changes in fluid content, dry weight of isolated tissues was obtained by a freeze-drying process. Myofiber cross-sectional area (CSA) was quantified on digital microscopy images of hematoxylin and eosin stained paraffin sections with in-house designed algorithms. In addition, the presence of myofiber degeneration, necrosis and inflammation was histologically evaluated. Triglyceride content of tissues was determined with a commercial colorimetric assay (triglyceride quantification kit, Abcam, Cambridge, UK).
as §1
Muscle wasting was evaluated by quantification of the dry weight of isolated skeletal muscles. Muscle weight of the EDL muscle decreased in all critically ill mice, irrespective of hydroxybutyrate treatment or nutritional regime (1.9±0.3 mg for PN, 2.1±0.3 mg for PN+3HB, and 2.0±0.4 mg for fasting+3HB as compared with 2.7±0.3 mg in healthy control mice; p<0.0001) (FIG. 11A). […]
as §2

For CC(O)CC(=O)O (racemic) [D,L-3-hydroxybutyrate sodium salt], the “absolute maximal force generated by EDL, % of healthy controls” value ([1]; Example 7, first experiment, fasted critically ill mice (survivors), 3HB 75 mg subcutaneous bolus twice daily) was 33%, the “effect on muscle weakness and muscle wasting (conclusion)” value ([1]; daily supplementation to parenterally fed mice, prolonged sepsis-induced critical illness) was “largely prevented muscle weakness but not muscle wasting” and the 5-day survivors ([2]; fasted critically ill mice) was 14/22. For the same compound, the risk of death ([2]; fasted critically ill mice, 3HB 75 mg boluses twice daily) was “increased risk of death”, the 5-day survivors ([2]; parenterally fed critically ill mice) was 17/21 and the “dry weight of the EDL muscle” value ([3]; healthy controls 2.7±0.3 mg) was 2.0 ± 0.4 mg. The “dry weight of the tibialis anterior muscle” value ([3]; healthy controls 12.4±1.3 mg) was 8.4 ± 1.8 mg.
